{"source": "patent US20150133434A1", "about": "“Compositions and Methods for Reactivating Latent Immunodeficiency Virus” (priority 2012, published 2015)", "key": {"[1]": {"system": "latent HIV (clone R7/E-/GFP) in Jurkat T cells", "assay": "Reactivation of latent HIV in polyclonal Jurkat T cells (clone R7/E-/GFP), flow cytometry of GFP", "format": "cell-based, HIV-1", "procedure": "A polyclonal population of Jurkat T cells containing latent HIV (clone R7/E-/GFP) was treated with increasing amounts of JQ1. This viral clone contains a frameshift mutation in the viral Env gene to prevent viral spread and expresses GFP in the Nef open reading frame, which allows separation of actively infected GFP^+ from GFP^− cells by cell sorting. GFP^− cells, which are mostly uninfected but contain a small fraction of latently infected cells with silenced HIV transcription, were treated with JQ1. Activation of transcription was measured by flow cytometry of GFP. […] Stimulation of cells with JQ1 produced up to fivefold more GFP-expressing cells than control-treated cells.\nHIV clones R7/E-/GFP and NL4-3/E-/GFP-IRES-nef were derived from pR7-GFP and pNLENG1-EGFP by mutating the Env gene by inserting an early stop codon in the NdeI site. […]. Jurkat cells were spininfected with 25 ng of p24 per 10^6 cells, and GFP^− cells where collected in two rounds of cell sorting 5 and 15 days after infection. The expanded population of GFP^− cells, composed of uninfected and latently infected cells, was seeded in 96-well plates and treated with the indicated concentration of drugs in duplicates. The percentage of GFP^+ cells was detected after 24 h at the MACSQuant VYB FACS analyzer. Data are expressed as the mean percentage of GFP^+ cells, subtracting the average percentage of spontaneous GFP-reactivation in the untreated samples. (A) Jurkat cells containing latent R7/E-/GFP virus were treated with JQ1 or (R)-JQ1 in combination with Prostratin (0.5 μM), SAHA (2.5 μM), TNFα (1 ng/μl), or control at the indicated concentrations for 18 h, followed by flow cytometry analysis. […] Results represent average of two independent experiments. All treatments in (A) and (B) on the X axis are in μM."}, "[2]": {"system": "latent LTR-GFP construct in J-Lat A72 cells", "assay": "J-Lat A72 cells (LTR-GFP lacking Tat), flow cytometry of GFP", "format": "cell-based, HIV-1", "procedure": "HEK293T and Jurkat cells were obtained from the American Type Culture Collection. J-Lat (clones A2 and A72) cell lines were described. HEK293T cells were cultured in DMEM supplemented with 10% FBS, 1% L-glutamine and 1% penicillin-streptomycin (Life Technologies). Jurkat and J-Lat cells were cultured in RPMI supplemented with 10% FBS, 1% L-glutamine, and 1% penicillin-streptomycin. TNFα (Sigma-Aldrich) was used at concentrations of 0.25 or 1 ng/ml. Human αCD3 and αCD28 (BD Biosciences) were used at concentrations of 3 and 1 μg/ml, respectively. Prostratin (Sigma) was used at a suboptimal concentration of 0.5 μM, and SAHA (NCI Chemical Carcinogen Repository, Midwest Research Institute) was used at 2.5 μM.\nTo determine if BET inhibition specifically activates Tat-dependent transcription, a J-Lat cell line was utilized that harbored a latent lentiviral construct expressing Tat with GFP from the HIV LTR (clone A2; LTR-Tat-IRES-GFP). […] Stimulation with JQ1 yielded up to ninefold more GFP-expressing cells than control-treated cells, and a 22-fold increase was observed when cells were co-treated with JQ1 and low doses of TNFα (FIG. 21A). […] Here, an up to 22-fold increase in GFP^+ cells resulted from JQ1 treatment alone and a 45-fold increase when TNFα was added with JQ1 (FIG. 21B). Both cell lines were also treated with prostratin and SAHA (FIG. 27).\nTwo latent J-Lat cell lines A2 (containing a LTR-Tat-IRES-GFP construct) or A72 (containing a LTR-GFP construct) were treated with JQ1 or (R)-JQ1 in combination with TNFα or control at the indicated concentrations for 18 h, followed by flow cytometry analysis. […] Data represent average (±SD) of three independent experiments. All treatments in (A) and (B) on the X axis are in μM."}}, "note": "“Also recorded” adds a separate entry of the source.", "data": [{"smiles": "Cc1sc2c(c1C)C(c1ccc(Cl)cc1)=N[C@@H](CC(=O)OC(C)(C)C)c1nnc(C)n1-2", "note": "[JQ1, tert-Butyl 2-((6S)-4-(4-chlorophenyl)-2,3,9-trimethyl-6H-thieno[3,2-f][1,2,4]triazolo[4,3-a][1,4]diazepin-6-yl)acetate]", "values": [{"measurement": "GFP-expressing cells relative to control-treated cells", "setting": "[1]; JQ1 alone", "result": "up to fivefold"}, {"measurement": "effect of adding JQ1 with SAHA", "setting": "[1]; co-treatment with SAHA 2.5 μM, FIG. 20A, B (both viral clones)", "result": "no additive or synergistic effects"}, {"measurement": "effect of co-treatment with TNFα on the JQ1 effect", "setting": "[1]; co-treatment with TNFα, FIG. 20A, B (both viral clones)", "result": "very modest enhancement"}, {"measurement": "effect of adding JQ1 with prostratin", "setting": "[1]; co-treatment with prostratin 0.5 μM, FIG. 20A, B (both viral clones)", "result": "Enhanced activation"}, {"measurement": "reactivation of HIV-1 (GFP+ cells)", "setting": "[1]; compound alone, increasing amounts", "result": "reactivated HIV-1 in a dose-dependent manner"}, {"measurement": "activation of HIV transcription (GFP)", "setting": "[2]; 18 h", "result": "increased GFP expression; also recorded: reactivated HIV-1 in a dose-dependent manner"}, {"measurement": "effect of adding SAHA to JQ1", "setting": "[2]; FIG. 27", "result": "only a very modest increase"}, {"measurement": "effect of adding prostratin to JQ1", "setting": "[2]; FIG. 27", "result": "enhanced the JQ1 effect"}, {"measurement": "increase in GFP+ cells", "setting": "[2]; JQ1 alone", "result": "up to 22 fold"}, {"measurement": "increase in GFP+ cells", "setting": "[2]; TNFα added with JQ1", "result": 45, "unit": "fold"}]}]}
